The values that follow come from patent publication US10273206B2 (ALLERGAN, INC., priority 2014, dated 2019).

SMILES strings stand for the structures. Counter-ions that a name gives are not always drawn. Like-named read-outs stand apart in the source and are kept apart here.

Data set [1] is described as follows: Measured pKa of bimatoprost acid, used for the Henderson-Hasselbalch fit. Conditions: measured pKa used to fit solubility vs. pH plot. It counts as physicochemical.
The conditions of data set [2]: base (source of basic counter ion) used in salt screening, Table 1; cited from earlier work.
The nature of data set [3]: Gravimetric vapor sorption (GVS) analysis. Type of data set: physicochemical. Here is the method:
The salt was then crystallized from ethyl acetate as follows. The lyophilized solid sample in ethyl acetate was subjected to initial heat/cool cycles using an Anachem React-Array. The sample was then subjected to three heat/cool cycles by using the following procedure: heating to 50° C. at 5° C./min, holding at 50° C. for 30 minutes, followed by cooling to 0° C. at 0.1° C./min, holding at 0° C. for 1 hour under constant stirring at 500 rpm. The recovered material (crystalline form 1) was analyzed by XRPD (FIG. 6), ^1H NMR, thermal analysis, and gravimetric vapor sorption (GVS) analysis, as summarized in Table 2.
Without being bound by any particular theory, the significant uptake of moisture may be a result of the large specific surface area of the material. On desorption, the adsorbed water was rapidly lost with no equilibrium established. At the end of the gravimetric vapor sorption (GVS) cycle, at 40% RH, the overall sample mass increased by 5 wt %.

Data set [4] is described as follows: pH-solubility determination (shake flask in aqueous media, HPLC quantitation). Type of data set: physicochemical. Conditions: thermodynamic from solid. The procedure: The pH was checked, and adjusted if necessary, at intervals of 1, 5, 23, 28 and 47 hrs. An aliquot of sample was taken off at 24 hrs and the final pH was recorded. The suspension was then filtered through a glass fiber C filter. The filtrate was then diluted by an appropriate factor. This was repeated at 48 hours. Quantitation was by HPLC with reference to 6 standard solutions of concentrations between 0.3873-0.0008 mg/ml dissolved in 66:21:13 H2O:ACN:MeOH.

A short description of data set [5]: Physical stability on storage at controlled temperature/relative humidity. Type of data set: physicochemical.
Data set [6] in a line: Dissolution rate compared with the free acid. Type of data set: physicochemical. Conditions: compared with bimatoprost free acid.

By pKa is commonly meant the pH at which an ionisable group is half protonated. Compound `O=C(O)CCC/C=C\C[C@@H]1[C@@H](/C=C/[C@@H](O)CCc2ccccc2)[C@H](O)C[C@@H]1O` [bimatoprost acid, (Z)-7-[3,5-Dihydroxy-2-((E)-3-hydroxy-5-phenyl-pent-1-enyl)-cyclopentyl]-hept-5-enoic acid] displayed a pKa in data set [1] of 4.76.

As for `NCCN` [Ethylenediamine], in data set [2], the pKa was 10.09.

For the compound `CCN(CC)CCO` [2-diethylamino ethanol], the pKa in data set [2] is recorded as 9.58.

As a reminder, the solubility is how much of the substance goes into solution per volume. Take `O=C(O)CCC/C=C\C[C@@H]1[C@@H](/C=C/[C@@H](O)CCc2ccccc2)[C@H](O)C[C@@H]1O` [tromethamine salt of (Z)-7-[3,5-Dihydroxy-2-((E)-3-hydroxy-5-phenyl-pent-1-enyl)-cyclopentyl]-hept-5-enoic acid]: the GVS analysis result in data set [3] (90% RH) is 90% RH, no deliquescence, no hydrate. In addition, the “overall sample mass increase at the end of the GVS cycle” value in data set [3] (at 40% RH, end of GVS cycle) stood at 5 wt %. For the same compound, in data set [3] (post GVS analysis, FIG. 3), the “XRPD re-analysis of the sample post GVS analysis (form change)” value is given as “no change in the crystalline Form 1”. Moreover, in data set [3] (stored at or above 80% RH), the “moisture uptake behaviour on storage” value is “behaves hygroscopically, with significant moisture uptake observed”. The solubility thermodynamic in data set [4] (25 °C, aqueous buffer, at pH 6.8, read-out: solubility) is about 250 mg/mL; in data set [4] (pH 6.5, aqueous buffer, pH above 6.5, 25° C., FIG. 5, read-out: solubility of the salt), at least 250 mg/mL. Moreover, the solubility at 48 h in data set [4] (25 °C, pH 2, aqueous buffer, pH 2 (solubility of the free acid), 25° C., FIG. 5, read-out: intrinsic solubility) was 1.39 mg/mL; in data set [4] (25 °C, pH 6.5, aqueous buffer, at pH 6.5, see FIG. 5, read-out: solubility) it was at least 250 mg/mL; in data set [4] (25 °C, pH 6.5, aqueous buffer, pH above 6.5, 25° C., FIG. 5, read-out: solubility of the salt), over 250 mg/mL. The “physically stable for (time)” value is over 3 months in data set [5] (25° C./60% relative humidity (RH), open container closure) and over 3 months in data set [5] (40° C./75% RH, closed container closure). Moreover, the “dissolution rate relative to the free acid” value in data set [6] is “faster dissolution rate than the free acid”.

For `OCCN1CCOCC1` [Hydroxyethyl-morpholine], in data set [2], the pKa was 7.39.

With `NC(=O)NCCC[C@H](N)C(=O)O` [Citrulline], the pKa in data set [2] is 7.00.

As for `C[N+](C)(C)CCO` [Choline], the pKa in data set [2] was 11.00.

Consider `CCNC[C@H](O)[C@@H](O)[C@H](O)[C@H](O)CO` [N-ethyl-glucamine], for which the pKa in data set [2] is 8.03.
